We go through 2 compounds from patent US9993426B2, “Bisacodyl compositions and delivery apparatus” (C.B. FLEET COMPANY INCORPORATED, priority 2015, dated 2018).

The text on data set [1]: The molecular formula for bisacodyl is (C22H19NO4), and the molecular weight is 361.39 gram/mole.
For data set [2] the following is noted: cited from earlier work.
Data set [3] in a line: Water solubility (qualitative statement). In kind it is physicochemical. From the text:
Ready-to-use bisacodyl preparations have a short shelf-life (i.e., less than 18 months), can experience settling, and result in waste (e.g., a significant portion of the drug remains in the package). There is a need in the art for a ready-to-use bisacodyl preparation with a longer shelf life and less wasteful apparatus for delivery into the colon.

In the case of `CC(=O)Oc1ccc(C(c2ccc(OC(C)=O)cc2)c2ccccn2)cc1` [Bisacodyl, 4,4′-(pyridin-2-ylmethylene)bis(4,1-phenylene) diacetate], in data set [1], the aqueous molar solubility came to 3.4 µM. In data set [2] (administered orally, 5-10 milligrams), the “time to have an effect” value was 6 to 12 h. The “time in which usually effective” value in data set [2] (administered rectally in suppository form, 10 mg) was 15 to 60 min. In addition, in data set [3], the water solubility result is “poor water solubility”.

Turning to `Oc1ccc(C(c2ccc(O)cc2)c2ccccn2)cc1` [desacetyl bisacodyl], in data set [3], the water solubility entry is given as “poor water solubility”.
